Data reported in US10035790B2, “RORγ modulators” (BRISTOL-MYERS SQUIBB COMPANY, priority 2012, dated 2018).

Molecular target: T1, ligand binding domain of human RORγ (A262-S507) (Homo sapiens, UniProt P51449)
T1 construct: made in house; host or cells: E. coli
T1 sequence (P51449 262-507): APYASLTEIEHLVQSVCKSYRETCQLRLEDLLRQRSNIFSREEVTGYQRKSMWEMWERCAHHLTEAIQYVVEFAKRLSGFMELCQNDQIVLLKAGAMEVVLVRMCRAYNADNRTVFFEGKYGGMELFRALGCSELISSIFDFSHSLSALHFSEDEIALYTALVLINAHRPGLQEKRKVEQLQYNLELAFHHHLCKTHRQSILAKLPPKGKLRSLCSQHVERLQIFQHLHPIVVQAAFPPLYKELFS
Test: General RORγ SPA binding assay (competition with [3H]25-hydroxycholesterol)
Conditions: RORγ SPA binding assay, inhibition of [3H]25-hydroxycholesterol binding; read-out: IC50
Procedure, shortened: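 N-terminally His-tagged protein was expressed in E. coli and nickel-purified. Then 50 nM protein was preincubated with compound for 15 min at room temperature in PBS with 0.5% fatty acid free BSA, followed by radioligand for 15 min and copper His-tag SPA beads for 30 min. IC50 came from percent inhibition of binding.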

Compound	IC50
CSc1ncc(C(C)=NOc2ccnc(C(F)(F)F)c2)c(C2CCN(C(=O)Nc3c(F)cccc3F)CC2)n1 (mixture of isomers) [Compound B52, N-(2,6-Difluorophenyl)-4-{2-(methylthio)-5-[(1E)-N-{[2-(trifluoromethyl)pyridin-4-yl]oxy}ethanimidoyl]pyrimidin-4-yl}piperidine-1-carboxamide]	334 nM
CC(O)(COc1ccnc(C(F)(F)F)n1)c1cnc(OCCF)nc1C1CCN(C(=O)Nc2c(F)cccc2F)CC1 (stereo not drawn) [Compound D43, N-(2,6-Difluorophenyl)-4-{2-[(2-fluoroethyl)oxy]-5-(1-hydroxy-1-methyl-2-{[2-(trifluoromethyl)pyrimidin-4-yl]oxy}ethyl)pyrimidin-4-yl}piperidine-1-carboxamide]	22 nM
Cc1nc(C)c(-c2nc(-c3cccc(C(F)(F)F)c3)no2)c(C2CCN(C(=O)Nc3c(F)cccc3F)CC2)n1 [Compound C63, N-(2,6-difluorophenyl)-4-(2,6-dimethyl-5-{3-[3-(trifluoromethyl)phenyl]-1,2,4-oxadiazol-5-yl}pyrimidin-4-yl)piperidine-1-carboxamide]	281 nM
Cc1cc(C)cc(CNC(=O)c2cnc(C)nc2C2CCN(C(=O)C3(c4ccccc4)CC3)CC2)c1 [Compound A32, N-(3,5-dimethylbenzyl)-2-methyl-4-(1-(1-phenylcyclopropanecarbonyl)piperidin-4-yl)pyrimidine-5-carboxamide]	1690 nM
Cc1ncc(C(O)(COc2cccc(C(F)(F)F)n2)C(=O)O)c(C2CCN(C(=O)Nc3c(F)cccc3F)CC2)n1 (stereo not drawn) [Compound N44, 2-[4-(1-{[(2,6-Difluorophenyl)amino]carbonyl}piperidin-4-yl)-2-methylpyrimidin-5-yl]-2-hydroxy-3-{[6-(trifluoromethyl)pyridin-2-yl]oxy}propanoic acid]	899 nM
CC(O)(COc1ccnc(C(F)(F)F)n1)c1cnc(OCC(F)F)nc1C1CCN(C(=O)Nc2c(F)cccc2F)CC1 (stereo not drawn) [Compound D41, 4-{2-[(2,2-Difluoroethyl)oxy]-5-(1-hydroxy-1-methyl-2-{[2-(trifluoromethyl)pyrimidin-4-yl]oxy}ethyl)pyrimidin-4-yl}-N-(2,6-difluorophenyl)piperidine-1-carboxamide]	101 nM
CC(=O)Nc1ncc(C(C)(O)COc2cccc(C(F)(F)F)n2)c(C2CCN(C(=O)Nc3c(F)cccc3F)CC2)n1 (stereo not drawn) [Compound D32, 4-[2-(Acetylamino)-5-(1-hydroxy-1-methyl-2-{[6-(trifluoromethyl)pyridin-2-yl]oxy}ethyl)pyrimidin-4-yl]-N-(2,6-difluorophenyl)piperidine-1-carboxamide]	13.9 nM
Cc1ncc(C(C)(F)CNc2ccnc(C(F)(F)F)n2)c(C2CCN(C(=O)Nc3c(F)cccc3F)CC2)n1 (stereo not drawn) [Compound E15, N-(2,6-Difluorophenyl)-4-[5-(1-fluoro-1-methyl-2-{[2-(trifluoromethyl)pyrimidin-4-yl]amino}ethyl)-2-methylpyrimidin-4-yl]piperidine-1-carboxamide]	56.5 nM
CSc1nc(C)c(-c2nnc(-c3cccc(C(F)(F)F)n3)o2)c(C2CCN(C(=O)Nc3c(F)cccc3F)CC2)n1 [Compound C58, N-(2,6-Difluorophenyl)-4-[6-methyl-2-(methylthio)-5-{5-[6-(trifluoromethyl)pyridin-2-yl]-1,3,4-oxadiazol-2-yl}pyrimidin-4-yl]piperidine-1-carboxamide]	14.1 nM
Cc1nc(N)nc(C2CCN(C(=O)Nc3c(F)cccc3F)CC2)c1C(O)COc1cccc(C(F)(F)F)n1 (stereo not drawn) [Compound N9, 4-[2-Amino-5-(1-hydroxy-2-{[6-(trifluoromethyl)pyridin-2-yl]oxy}ethyl)-6-methylpyrimidin-4-yl]-N-(2,6-difluorophenyl)piperidine-1-carboxamide]	4.2 nM
Cc1nc(C)c(-c2nnc(-c3ccnc(C(F)(F)F)n3)o2)c(C2CCN(C(=O)Cc3ccccc3Cl)CC2)n1 [Compound C41, 4-{1-[(2-Chlorophenyl)acetyl]piperidin-4-yl}-2,6-dimethyl-5-{5-[2-(trifluoromethyl)pyrimidin-4-yl]-1,3,4-oxadiazol-2-yl}pyrimidine]	20.5 nM
Cc1nc(N)nc(C2CCN(C(=O)Oc3cc(F)ccc3F)CC2)c1-c1nnc(-c2ccnc(C(F)(F)F)n2)o1 [Compound C54, 2,5-Difluorophenyl 4-(2-amino-6-methyl-5-{5-[2-(trifluoromethyl)pyrimidin-4-yl]-1,3,4-oxadiazol-2-yl}pyrimidin-4-yl)piperidine-1-carboxylate]	21.1 nM
CSc1ncc(C(C)(O)COc2cccc(C(F)(F)F)n2)c(C2CCN(C(=O)Nc3c(F)cccc3F)CC2)n1 (stereo not drawn) [Compound D26, N-(2,6-Difluorophenyl)-4-[5-(1-hydroxy-1-methyl-2-{[6-(trifluoromethyl)pyridin-2-yl]oxy}ethyl)-2-(methylthio)pyrimidin-4-yl]piperidine-1-carboxamide]	12.6 nM
Cc1nc(C)c(-c2nnc(-c3ccnc(C(F)(F)F)n3)o2)c(C2CCN(C(=O)Cc3ccccc3F)CC2)n1 [Compound C25, 1-(4-(2,6-dimethyl-5-(5-(2-(trifluoromethyl)pyrimidin-4-yl)-1,3,4-oxadiazol-2-yl)pyrimidin-4-yl)piperidin-1-yl)-2-(2-fluorophenyl)ethanone]	23.1 nM
Cc1nc(C)c(-c2nnc(-c3ccnc(C(F)(F)F)n3)s2)c(C2CCN(C(=S)Cc3c(F)cccc3F)CC2)n1 [Compound C39, 4-{1-[2-(2,6-Difluorophenyl)ethanethioyl]piperidin-4-yl}-2,6-dimethyl-5-{5-[2-(trifluoromethyl)pyrimidin-4-yl]-1,3,4-thiadiazol-2-yl}pyrimidine]	4520 nM

Second part, the compound after the results:

IC50	Compound
5 nM	Cc1cc(C)cc(NCC(C)(O)c2cnc(C)nc2C2CCN(C(=O)Cc3c(F)cccc3F)CC2)c1 (stereo not drawn) [Compound D3, 2-(2,6-difluorophenyl)-1-(4-(5-(1-((3,5-dimethylphenyl)amino)-2-hydroxypropan-2-yl)-2-methylpyrimidin-4-yl)piperidin-1-yl)ethanone]
10 nM	COc1ncc(C(=O)NCc2cccc(Cl)c2)c(C2CCN(C(=O)Cc3c(F)cccc3F)CC2)n1 [Compound A92, N-(3-chlorobenzyl)-4-(1-(2-(2,6-difluorophenyl)acetyl)piperidin-4-yl)-2-methoxypyrimidine-5-carboxamide]
1340 nM	CCNC(=O)c1cc(CNC(=O)c2cnc(C)nc2C2CCN(C(=O)Cc3c(F)cccc3F)CC2)ccn1 [Compound A77, 4-(1-(2-(2,6-difluorophenyl)acetyl)piperidin-4-yl)-N-((2-(ethylcarbamoyl)pyridin-4-yl)methyl)-2-methylpyrimidine-5-carboxamide]
158 nM	Cc1ncc(C(=O)NCCOc2ccccc2)c(C2CCN(C(=O)Cc3c(F)cccc3F)CC2)n1 [Compound A20, 4-(1-(2-(2,6-difluorophenyl)acetyl)piperidin-4-yl)-2-methyl-N-(2-phenoxyethyl)pyrimidine-5-carboxamide]
118 nM	Cc1ccnc(NCC(C)(O)c2cnc(C)nc2C2CCN(C(=O)Cc3c(F)cccc3F)CC2)c1 (stereo not drawn) [Compound D9, 2-(2,6-difluorophenyl)-1-(4-(5-(2-hydroxy-1-((4-methylpyridin-2-yl)amino)propan-2-yl)-2-methylpyrimidin-4-yl)piperidin-1-yl)ethanone]
49 nM	Cc1cc(C)cc(ONC(=O)c2cnc(C)nc2C2CCN(C(=O)Cc3c(F)cccc3F)CC2)c1 [Compound H2, 4-(1-(2-(2,6-difluorophenyl)acetyl)piperidin-4-yl)-N-(3,5-dimethylphenoxy)-2-methylpyrimidine-5-carboxamide]
5.1 nM	C/C(=N\Oc1ccnc(Cl)c1)c1cnc(C)nc1C1CCN(C(=O)Cc2c(F)cccc2F)CC1 [Compound B15, (E)-1-(4-(5-(1-(((2-chloropyridin-4-yl)oxy)imino)ethyl)-2-methylpyrimidin-4-yl)piperidin-1-yl)-2-(2,6-difluorophenyl)ethanone]
52 nM	Cc1ncc(C(=O)NCc2ccc(Cl)c(Cl)c2)c(C2CCN(C(=O)Cc3c(F)ccc(F)c3F)CC2)n1 [Compound A13, N-(3,4-dichlorobenzyl)-2-methyl-4-(1-(2-(2,3,6-trifluorophenyl)acetyl)piperidin-4-yl)pyrimidine-5-carboxamide]
606 nM	Cc1nc(C)c(-c2nc(Cc3ccc(F)cc3)no2)c(C2CCN(C(=O)Cc3c(F)cccc3F)CC2)n1 [Compound C3, 2-(2,6-difluorophenyl)-1-(4-(5-(3-(4-fluorobenzyl)-1,2,4-oxadiazol-5-yl)-2,6-dimethylpyrimidin-4-yl)piperidin-1-yl)ethanone]
7.8 nM	Cc1cc(C)cc(CNC(=O)c2cnc(C)nc2C2CCN(C(=O)Cc3c(F)cccc3C(F)(F)F)CC2)c1 [Compound A4, N-(3,5-dimethylbenzyl)-4-(1-(2-(2-fluoro-6-(trifluoromethyl)phenyl)acetyl)piperidin-4-yl)-2-methylpyrimidine-5-carboxamide]
6.3 nM	CNc1ncc(C(=O)NCc2cccc(Cl)c2)c(C2CCN(C(=O)Cc3c(F)cccc3F)CC2)n1 [Compound A90, N-(3-chlorobenzyl)-4-(1-(2-(2,6-difluorophenyl)acetyl)piperidin-4-yl)-2-(methylamino)pyrimidine-5-carboxamide]
3010 nM	Cc1nc(C)c(-c2nnc(-c3cc(Cl)ccn3)o2)c(C2CCN(C(=O)Cc3c(F)cccc3F)CC2)n1 [Compound C21, 1-(4-(5-(5-(4-chloropyridin-2-yl)-1,3,4-oxadiazol-2-yl)-2,6-dimethylpyrimidin-4-yl)piperidin-1-yl)-2-(2,6-difluorophenyl)ethanone]
